Measured values as given in ChEMBL document CHEMBL3784924, “Identification of a 5-[3-phenyl-(2-cyclic-ether)-methylether]-4-aminopyrrolo[2,3-d]pyrimidine series of IGF-1R inhibitors” (Bioorg Med Chem Lett, 2016).
Each block holds one molecule with its values, some of them ahead of it.

What was measured:
Liver microsome [1] = test: Drug metabolism in human liver microsomes assessed as 3-(4-amino-7-((cis)-3-(azetidin-1-ylmethyl)cyclobutyl)-7H-pyrrolo[2,3-d]pyrimidin-5-yl)phenol formation by LC-MS/MS analysis; format: ADME
[2] = biological target: Phosphatidylinositol 4,5-bisphosphate 3-kinase catalytic subunit alpha isoform (Homo sapiens, UniProt P42336); test: Inhibition of PI3K-alpha (unknown origin)
[3] = biological target: Tyrosine-protein kinase JAK1 (Homo sapiens, UniProt P23458); test: Inhibition of Jak1 (unknown origin)
[4] = biological target: Voltage-gated inwardly rectifying potassium channel KCNH2 (Homo sapiens, UniProt Q12809); test: Inhibition of human ERG by dofetilide binding assay
[5] = biological target: Epidermal growth factor receptor (Homo sapiens, UniProt P00533); test: Inhibition of Her1 (unknown origin)
[6] = biological target: Phosphatidylinositol 4,5-bisphosphate 3-kinase catalytic subunit beta isoform (Homo sapiens, UniProt P42338); test: Inhibition of PI3K-beta (unknown origin)
[7] = biological target: Insulin-like growth factor 1 receptor (Homo sapiens, UniProt P08069); test: Inhibition of IGF-1 receptor (unknown origin)
[8] = biological target: Proto-oncogene tyrosine-protein kinase receptor Ret (Homo sapiens, UniProt P07949); test: Inhibition of Ret (unknown origin)
Ephrin type-B receptor 4 = biological target: T1, Ephrin type-B receptor 4 (Homo sapiens, UniProt P54760); test: Inhibition of EphB4 receptor (unknown origin)
T1 sequence (P54760 whole entry): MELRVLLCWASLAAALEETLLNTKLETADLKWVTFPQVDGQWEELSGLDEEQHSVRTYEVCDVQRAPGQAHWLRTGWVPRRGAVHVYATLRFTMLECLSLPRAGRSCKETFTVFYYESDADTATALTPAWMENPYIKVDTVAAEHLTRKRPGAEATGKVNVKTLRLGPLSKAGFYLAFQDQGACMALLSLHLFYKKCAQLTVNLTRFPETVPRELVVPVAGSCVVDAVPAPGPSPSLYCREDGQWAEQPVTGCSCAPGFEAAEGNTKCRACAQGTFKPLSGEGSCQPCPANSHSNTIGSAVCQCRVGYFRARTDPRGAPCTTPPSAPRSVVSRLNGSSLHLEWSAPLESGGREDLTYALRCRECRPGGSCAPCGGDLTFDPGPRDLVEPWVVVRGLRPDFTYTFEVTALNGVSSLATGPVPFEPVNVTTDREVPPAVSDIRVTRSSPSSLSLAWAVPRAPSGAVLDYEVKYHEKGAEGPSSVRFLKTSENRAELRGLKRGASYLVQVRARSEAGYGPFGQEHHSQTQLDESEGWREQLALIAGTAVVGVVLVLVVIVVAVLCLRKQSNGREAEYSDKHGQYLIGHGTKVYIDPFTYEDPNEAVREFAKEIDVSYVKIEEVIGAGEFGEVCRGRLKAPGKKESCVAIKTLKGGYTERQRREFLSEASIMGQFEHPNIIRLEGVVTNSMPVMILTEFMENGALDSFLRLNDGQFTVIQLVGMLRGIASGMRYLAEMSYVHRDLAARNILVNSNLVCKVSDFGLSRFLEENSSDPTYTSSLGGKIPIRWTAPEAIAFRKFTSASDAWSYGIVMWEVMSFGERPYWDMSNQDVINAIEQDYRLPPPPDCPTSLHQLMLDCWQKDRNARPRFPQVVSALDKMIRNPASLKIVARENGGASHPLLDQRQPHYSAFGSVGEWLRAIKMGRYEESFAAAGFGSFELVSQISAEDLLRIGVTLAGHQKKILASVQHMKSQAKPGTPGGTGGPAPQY

Cytochrome P450 3A4 = Cytochrome P450 3A4 (Homo sapiens, UniProt P08684); test: Effect on human CYP3A4 at 10 uM; format: ADME
Insulin receptor = Insulin receptor (Homo sapiens, UniProt P06213); test: Inhibition of Ins receptor (unknown origin)
[9] = Solubility of compound in water; format: physicochemical; conditions: buffer
Cytochrome P450 2C9 = Cytochrome P450 2C9 (Homo sapiens, UniProt P11712); test: Effect on human CYP2C9 at 10 uM; format: ADME
[10] = biological target: Vascular endothelial growth factor receptor 2 (Homo sapiens, UniProt P35968); test: Inhibition of KDR (unknown origin)
[11] = biological target: Tyrosine-protein kinase Lck (Homo sapiens, UniProt P06239); test: Inhibition of Lck (unknown origin)
Cytochrome P450 2D6 = Cytochrome P450 2D6 (Homo sapiens, UniProt P10635); test: Effect on human CYP2D6 at 10 uM; format: ADME
[12] = Permeability of compound at >= pH 7 by PAMPA assay; format: ADME
Liver microsome [13] = test: Drug level in human liver microsomes treated with NVP-AEW541 by LC-MS/MS analysis; format: ADME

Epidermal growth factor receptor, sequence (P00533 whole entry, canonical isoform): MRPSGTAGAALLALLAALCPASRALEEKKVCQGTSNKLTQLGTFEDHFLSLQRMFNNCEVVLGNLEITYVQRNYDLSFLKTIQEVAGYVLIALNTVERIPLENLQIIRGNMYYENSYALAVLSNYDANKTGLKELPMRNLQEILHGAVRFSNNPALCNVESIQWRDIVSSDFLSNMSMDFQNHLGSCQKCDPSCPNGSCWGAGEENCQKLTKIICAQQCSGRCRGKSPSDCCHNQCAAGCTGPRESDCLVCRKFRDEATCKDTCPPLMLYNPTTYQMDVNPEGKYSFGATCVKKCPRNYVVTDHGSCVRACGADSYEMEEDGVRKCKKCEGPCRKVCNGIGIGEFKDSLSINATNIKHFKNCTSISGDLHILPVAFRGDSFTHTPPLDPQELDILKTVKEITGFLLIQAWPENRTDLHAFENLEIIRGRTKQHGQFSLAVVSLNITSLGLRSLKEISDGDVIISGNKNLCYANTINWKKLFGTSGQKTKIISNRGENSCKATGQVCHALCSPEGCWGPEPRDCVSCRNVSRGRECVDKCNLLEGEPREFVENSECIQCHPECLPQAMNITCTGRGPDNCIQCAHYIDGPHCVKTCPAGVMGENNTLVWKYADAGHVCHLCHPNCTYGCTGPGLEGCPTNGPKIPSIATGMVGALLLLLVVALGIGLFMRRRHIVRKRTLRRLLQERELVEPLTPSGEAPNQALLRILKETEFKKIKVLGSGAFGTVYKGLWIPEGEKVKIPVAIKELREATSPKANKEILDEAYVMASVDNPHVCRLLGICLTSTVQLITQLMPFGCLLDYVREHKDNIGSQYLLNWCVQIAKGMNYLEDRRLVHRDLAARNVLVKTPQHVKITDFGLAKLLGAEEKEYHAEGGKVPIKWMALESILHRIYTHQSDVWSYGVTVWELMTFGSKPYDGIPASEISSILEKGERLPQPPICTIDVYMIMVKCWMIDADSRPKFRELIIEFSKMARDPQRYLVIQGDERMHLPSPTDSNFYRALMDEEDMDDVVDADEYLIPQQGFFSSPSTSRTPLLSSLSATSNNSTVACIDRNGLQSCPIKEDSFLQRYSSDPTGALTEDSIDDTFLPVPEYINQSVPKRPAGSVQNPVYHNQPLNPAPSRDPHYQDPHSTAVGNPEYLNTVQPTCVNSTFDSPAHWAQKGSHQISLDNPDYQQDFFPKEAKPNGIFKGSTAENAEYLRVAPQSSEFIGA
Insulin-like growth factor 1 receptor, sequence (P08069 31-736 limits assumed): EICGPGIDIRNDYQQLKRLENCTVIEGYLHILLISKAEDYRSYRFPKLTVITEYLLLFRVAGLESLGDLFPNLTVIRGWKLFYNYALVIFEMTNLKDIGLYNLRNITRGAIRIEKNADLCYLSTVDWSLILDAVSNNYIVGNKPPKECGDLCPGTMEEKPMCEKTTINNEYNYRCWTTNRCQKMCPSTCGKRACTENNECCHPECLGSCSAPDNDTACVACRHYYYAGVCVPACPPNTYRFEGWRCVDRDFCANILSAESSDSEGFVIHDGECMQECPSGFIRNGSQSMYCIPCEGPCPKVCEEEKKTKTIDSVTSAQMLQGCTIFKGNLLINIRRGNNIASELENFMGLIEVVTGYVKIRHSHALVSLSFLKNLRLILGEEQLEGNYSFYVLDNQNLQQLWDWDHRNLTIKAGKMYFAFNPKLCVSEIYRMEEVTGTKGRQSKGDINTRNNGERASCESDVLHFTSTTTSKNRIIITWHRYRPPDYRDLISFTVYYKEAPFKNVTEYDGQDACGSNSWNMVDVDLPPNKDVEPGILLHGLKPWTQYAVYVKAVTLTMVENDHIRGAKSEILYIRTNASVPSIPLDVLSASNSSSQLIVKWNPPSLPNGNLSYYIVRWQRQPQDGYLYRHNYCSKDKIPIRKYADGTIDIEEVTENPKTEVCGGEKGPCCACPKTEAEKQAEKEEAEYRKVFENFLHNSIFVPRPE
Insulin-like growth factor 1 receptor, sequence (P08069 741-1367 limits assumed): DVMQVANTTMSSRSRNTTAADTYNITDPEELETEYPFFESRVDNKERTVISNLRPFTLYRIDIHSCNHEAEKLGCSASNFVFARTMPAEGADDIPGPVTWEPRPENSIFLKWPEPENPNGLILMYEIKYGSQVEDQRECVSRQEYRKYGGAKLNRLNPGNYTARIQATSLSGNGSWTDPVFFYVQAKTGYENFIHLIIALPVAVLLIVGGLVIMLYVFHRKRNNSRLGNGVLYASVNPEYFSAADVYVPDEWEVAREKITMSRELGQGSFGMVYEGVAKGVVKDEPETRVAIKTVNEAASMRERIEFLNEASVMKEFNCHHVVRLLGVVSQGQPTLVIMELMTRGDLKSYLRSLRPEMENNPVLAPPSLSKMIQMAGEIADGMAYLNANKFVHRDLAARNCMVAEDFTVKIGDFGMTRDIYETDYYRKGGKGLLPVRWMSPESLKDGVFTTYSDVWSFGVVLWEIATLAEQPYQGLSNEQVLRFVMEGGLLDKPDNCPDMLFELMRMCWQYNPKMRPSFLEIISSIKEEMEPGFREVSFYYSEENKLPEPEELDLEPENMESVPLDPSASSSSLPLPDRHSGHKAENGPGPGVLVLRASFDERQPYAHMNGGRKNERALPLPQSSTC
Tyrosine-protein kinase JAK1, sequence (P23458 whole entry): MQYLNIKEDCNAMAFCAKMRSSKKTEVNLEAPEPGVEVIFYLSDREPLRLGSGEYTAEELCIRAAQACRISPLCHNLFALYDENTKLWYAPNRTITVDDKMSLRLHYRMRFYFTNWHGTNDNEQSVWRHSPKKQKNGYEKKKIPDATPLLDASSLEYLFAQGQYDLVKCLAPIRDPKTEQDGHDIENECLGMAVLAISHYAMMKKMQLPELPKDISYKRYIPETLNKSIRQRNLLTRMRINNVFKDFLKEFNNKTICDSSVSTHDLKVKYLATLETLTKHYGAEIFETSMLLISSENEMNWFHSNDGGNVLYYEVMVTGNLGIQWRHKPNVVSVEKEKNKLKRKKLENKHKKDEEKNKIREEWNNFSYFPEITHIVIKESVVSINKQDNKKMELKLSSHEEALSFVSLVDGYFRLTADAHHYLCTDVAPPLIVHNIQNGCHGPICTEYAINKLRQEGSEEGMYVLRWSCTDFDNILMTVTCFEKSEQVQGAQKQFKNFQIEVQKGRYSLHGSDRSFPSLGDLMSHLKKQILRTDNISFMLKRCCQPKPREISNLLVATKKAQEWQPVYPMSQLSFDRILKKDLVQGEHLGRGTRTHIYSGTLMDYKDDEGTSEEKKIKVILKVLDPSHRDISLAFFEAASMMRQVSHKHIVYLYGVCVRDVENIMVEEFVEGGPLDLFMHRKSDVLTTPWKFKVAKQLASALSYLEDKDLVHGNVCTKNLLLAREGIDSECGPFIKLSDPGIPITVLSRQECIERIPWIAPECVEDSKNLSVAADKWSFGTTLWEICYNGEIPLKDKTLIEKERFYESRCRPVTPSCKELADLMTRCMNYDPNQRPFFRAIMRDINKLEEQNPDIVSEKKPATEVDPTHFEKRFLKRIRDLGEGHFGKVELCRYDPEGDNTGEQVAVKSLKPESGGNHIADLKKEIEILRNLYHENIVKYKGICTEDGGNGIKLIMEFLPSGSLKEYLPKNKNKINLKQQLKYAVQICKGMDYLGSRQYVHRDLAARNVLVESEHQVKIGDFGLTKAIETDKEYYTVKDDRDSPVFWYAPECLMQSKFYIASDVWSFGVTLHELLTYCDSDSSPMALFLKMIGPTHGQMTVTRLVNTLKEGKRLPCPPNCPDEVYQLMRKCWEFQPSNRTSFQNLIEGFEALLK
Phosphatidylinositol 4,5-bisphosphate 3-kinase catalytic subunit alpha isoform, sequence (P42336 whole entry, canonical isoform): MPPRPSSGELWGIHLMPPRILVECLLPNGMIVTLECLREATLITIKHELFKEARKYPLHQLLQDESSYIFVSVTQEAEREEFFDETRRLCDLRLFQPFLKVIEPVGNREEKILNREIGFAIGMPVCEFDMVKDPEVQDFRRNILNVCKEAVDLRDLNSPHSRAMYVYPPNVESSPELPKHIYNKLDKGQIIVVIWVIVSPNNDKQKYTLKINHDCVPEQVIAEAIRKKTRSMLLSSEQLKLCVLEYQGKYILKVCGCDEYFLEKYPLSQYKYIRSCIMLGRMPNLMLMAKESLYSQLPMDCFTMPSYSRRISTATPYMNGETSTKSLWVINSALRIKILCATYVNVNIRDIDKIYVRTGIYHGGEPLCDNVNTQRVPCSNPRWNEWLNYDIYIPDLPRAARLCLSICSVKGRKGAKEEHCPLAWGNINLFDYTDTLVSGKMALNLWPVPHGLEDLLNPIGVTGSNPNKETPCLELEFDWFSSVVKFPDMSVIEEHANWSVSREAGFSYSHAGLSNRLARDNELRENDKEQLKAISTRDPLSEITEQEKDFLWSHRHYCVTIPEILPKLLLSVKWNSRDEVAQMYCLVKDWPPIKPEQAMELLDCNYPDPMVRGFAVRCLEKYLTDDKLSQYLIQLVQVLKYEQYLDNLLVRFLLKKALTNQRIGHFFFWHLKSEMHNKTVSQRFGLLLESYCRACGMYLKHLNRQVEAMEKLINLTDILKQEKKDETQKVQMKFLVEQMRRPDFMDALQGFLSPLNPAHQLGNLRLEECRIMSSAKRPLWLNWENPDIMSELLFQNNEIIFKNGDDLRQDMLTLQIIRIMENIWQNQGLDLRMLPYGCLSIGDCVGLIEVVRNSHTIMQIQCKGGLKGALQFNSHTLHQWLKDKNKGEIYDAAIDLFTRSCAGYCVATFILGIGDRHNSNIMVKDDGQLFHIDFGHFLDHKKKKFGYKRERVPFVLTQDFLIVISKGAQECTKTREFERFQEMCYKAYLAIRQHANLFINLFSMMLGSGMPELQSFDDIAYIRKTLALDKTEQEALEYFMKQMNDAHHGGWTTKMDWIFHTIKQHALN

IC50 [7]: 310 nM
Compound: CCCOCCOc1cccc(-c2cn([C@H]3C[C@@H](CN4CCC4)C3)c3ncnc(N)c23)c1

IC50 [7]: 370 nM
Compound: CC(C)CCOCCOc1cccc(-c2cn([C@H]3C[C@@H](CN4CCC4)C3)c3ncnc(N)c23)c1

IC50 [7]: 260 nM
Compound: CC(C)OCCOc1cccc(-c2cn([C@H]3C[C@@H](CN4CCC4)C3)c3ncnc(N)c23)c1

IC50 [7]: 630 nM
Compound: CCOCCOc1cccc(-c2cn([C@H]3C[C@@H](CN4CCC4)C3)c3ncnc(N)c23)c1

IC50 [7]: 7900 nM
Compound: Nc1ncnc2c1c(-c1cccc(OCCO)c1)cn2[C@H]1C[C@@H](CN2CCC2)C1

IC50 [7]: 2000 nM
Compound: COCCOc1cccc(-c2cn([C@H]3C[C@@H](CN4CCC4)C3)c3ncnc(N)c23)c1

More lines, now with the values behind:

Compound: Nc1ncnc2c1c(-c1cccc(OCc3ccccc3)c1)cn2[C@H]1C[C@@H](CN2CCC2)C1
Drug metabolism (Liver microsome [1]): metabolite_detected | IC50 [2]: > 9000 nM | IC50 [3]: > 10000 nM | IC50 [4]: 130 nM | IC50 [5]: > 10000 nM | IC50 [6]: > 9000 nM

Compound: Nc1ncnc2c1c(-c1cccc(OCCOC3CCCC3)c1)cn2[C@H]1C[C@@H](CN2CCC2)C1
IC50 [7]: 490 nM

Compound: CC1(C)CC[C@H](COc2cccc(-c3cn([C@H]4C[C@@H](CN5CCC5)C4)c4ncnc(N)c34)c2)O1
IC50 [7]: 60 nM

Compound: Nc1ncnc2c1c(-c1cccc(OC[C@H]3CCCCO3)c1)cn2[C@H]1C[C@@H](CN2CCC2)C1
Drug metabolism (Liver microsome [1]): metabolite_notdetected | IC50 [7]: 80 nM

Compound: Nc1ncnc2c1c(-c1cccc(OCC3CCCC3)c1)cn2[C@H]1C[C@@H](CN2CCC2)C1
IC50 [7]: 840 nM

Compound: CC1(C)CC[C@@H](COc2cccc(-c3cn([C@H]4C[C@@H](CN5CCC5)C4)c4ncnc(N)c34)c2)O1
IC50 [8]: 970 nM | IC50 (Ephrin type-B receptor 4): 690 nM | Activity (Cytochrome P450 3A4): Not Active | IC50 [2]: > 9000 nM | IC50 [7]: 9 nM | IC50 [3]: > 10000 nM | IC50 (Insulin receptor): 100 nM | solubility [9]: soluble | Activity (Cytochrome P450 2C9): Not Active | IC50 [10]: > 10000 nM | IC50 [11]: 7400 nM | Activity (Cytochrome P450 2D6): Not Active | permeability [12]: permeable | IC50 [5]: > 10000 nM | IC50 [6]: > 9000 nM

Compound: CC(C)(C)OCCOc1cccc(-c2cn([C@H]3C[C@@H](CN4CCC4)C3)c3ncnc(N)c23)c1
IC50 [7]: 160 nM

Compound: Nc1ncnc2c1c(-c1cccc(OC[C@H]3CCCO3)c1)cn2[C@H]1C[C@@H](CN2CCC2)C1
IC50 [7]: 110 nM

Compound: Nc1ncnc2c1c(-c1cccc(O)c1)cn2[C@H]1C[C@@H](CN2CCC2)C1
Drug metabolism (Liver microsome [13]): metabolite_detected

Compound: Nc1ncnc2c1c(-c1cccc(OCC3CCC3)c1)cn2[C@H]1C[C@@H](CN2CCC2)C1
IC50 [7]: 1900 nM

Compound: Nc1ncnc2c1c(-c1cccc(OCC3CCCCC3)c1)cn2[C@H]1C[C@@H](CN2CCC2)C1
IC50 [7]: 550 nM

Compound: Nc1ncnc2c1c(-c1cccc(OC[C@@H]3CCCO3)c1)cn2[C@H]1C[C@@H](CN2CCC2)C1
IC50 [2]: > 9000 nM | IC50 [7]: 80 nM | IC50 [3]: > 10000 nM | IC50 [4]: 3600 nM | IC50 [5]: > 10000 nM | IC50 [6]: > 9000 nM

Compound: Nc1ncnc2c1c(-c1cccc(OC[C@@H]3CCCCO3)c1)cn2[C@H]1C[C@@H](CN2CCC2)C1
IC50 [7]: 130 nM

Compound: CC(Oc1cccc(-c2cn([C@H]3C[C@@H](CN4CCC4)C3)c3ncnc(N)c23)c1)c1ccccc1 (mixture of isomers)
IC50 [7]: 3700 nM
